Entries after “also recorded” stand apart in the source; their conditions may differ.
Experiments:
HepG2 cells = test: Rotenone Oxygraph Assay (high-resolution respirometry of intact HepG2 cells); assay type: cell-based, human; settings: for activation at 10 µM: Homo sapiens
Description: Example 15: Rotenone Oxygraph Assay (High-Resolution Respirometry of Intact HepG2 Cells)
The Oxygraph-2k (O2k, OROBOROS INSTRUMENTS, Austria) was used for measurements of respiration of intact cells. The respirometry was performed in Dulbecco's Modified Eagle Medium (DMEM) high glucose without supplements. All experiments were performed at 37° C.
HepG2 cells (ATCC collection code HB-8065™) were cultured in 10 cm^2 culture dishes in DMEM high glucose medium supplemented with 10% fetal bovine serum (FBS) and 100 units/mL penicillin and 100 μg/mL streptomycin until approximately 90% confluence was reached. Immediately prior to performing the respirometric assay, the cells were washed with media without FBS, trypsinized and resuspended in DMEM high glucose without FBS.
The final concentration of intact cells in the O2k-chamber was 0.5-10^6/mL. After stabilization of respiration, the Complex I inhibitor, rotenone, at 1 μM final concentration was added to inhibit electron flux via Complex I. Then, compound to be tested was added at 10 μM final concentration, and the change in respiration rate of intact cells was monitored. […]

[1] = system: frataxin deficient fibroblasts (GM03665) from Friedreich's ataxia patient; test: Frataxin Deficient Fibroblast Viability Assay (BSO Assay); assay type: cell-based; settings: for protection against BSO induced cell death (in words): BSO Assay, text statement; for EC50: Homo sapiens, Fibroblast, FA patient fibroblasts pretreated with compound, BSO 10 mM, MTT after 48 hrs
Description: Example 12: Frataxin Deficient Fibroblast Viability Assay (the “BSO Assay”)
This Example was used to evaluate the various new compositions for their potential efficacy in the treatment of Friedreich's Ataxia (FA or FRDA)—substantially as described in the above cited Reference (Matthias et al.).
The stock solutions of the test articles (and control compounds) were prepared in dimethyl sulfoxide (DMSO at 10 mM), Working stock solutions (2 times concentrated) were prepared on the day of the experiment in respective cell culture medium to be used for assay (detailed medium description below). A listing of compounds used as test articles in this Example 12 are found in Table 1, below.
A patient derived frataxin deficient fibroblast cell line was obtained from Coriell Institute. More specifically, the following cell lines/DNA samples were obtained from the NIGMS Human Genetic Cell Repository at the Coriell Institute for Medical Research: GM03665. To evaluate importance of various growth conditions on cell susceptibility to BSO toxicity cells were grown on:
MEM (Sigma-Aldrich) 15% Fetal Bovine Serum (FBS) without growth factors;
MEM (Sigma-Aldrich) 15% FBS with growth factors (Catalogue number 100-18B, Recombinant Human FGF-basic (154 a.a.) and catalogue number AF-100-15, Animal-Free Recombinant Human EGF from Peprotech);
MEM199/MEM EBS (Bioconcept Ltd.) 10% FBS, insulin 10 μg/ml, L-glutamine 2 mM with growth factors (Catalogue number 100-18B, Recombinant Human FGF-basic (154 a.a.) and catalogue number AF-100-15, Animal-Free Recombinant Human EGF from Peprotech).
To conduct an experiment, fibroblast cells (from all growth conditions) were seeded (100 μL (cells 3×10^3/well) on 96-well plates in MEM199/MEM EBS medium 10% FBS, insulin 10 μg/mL, L-glutamine 2 mM with growth factors and allowed to grow on plate for 24 hrs. After 24 hrs., media was removed and then test compounds of interest were added (100 μL, 2 times concentrated stock) to 96-well plates (end DM80 concentration not exceeding 0.5%) and incubated for 24 hours. Then L-buthionine-sulfoximine (BSO, from Acros Organics, Cat. No. 235520010) was added (100 μL, 2 times concentrated stock) at end concentrations ranging from 1 to 10 mM. Both test compounds and BSO were dissolved in MEM199/MEM EBS medium 10% FBS, insulin 10 μg/mL, L-glutamine 2 mM with growth factors. Cell viability was monitored and either after 24- or 48-hours cell viability was assayed by MTT (Thiazolyl blue tetrazolium bromide) assay. For the MTT assay, media was removed and 100 μL of MTT 1 mg/mL was added, incubated for 2 hours at +37° C., then medium was removed and 100 μL of isopropanol added to dissolve sediment. Absorption was measured at 570 (OD570) and 650 (QD650) nm wavelengths. Control cells (vehicle instead of BSO and compound) and vehicle control (with BSO, but vehicle instead of test compound) were treated in the same manner as ceils with BSO and compound. All cell media contained penicillin and streptomycin 100 U/mL each.
Absorption readouts were processed as follows: ValueΔ=ValueOD570−ValueOD650 and the obtained values were used to calculate cell viability as % of control cell (i.e., no BSO, no compound, just vehicle) viability.
Except as otherwise indicated in Table 1, all samples were run in at least 3 replicates for test compounds and at least 8 replicates for controls (i.e., both control (no BSO, no compound) and vehicle control (i.e., with BSO, no compound). Exact N per data points are indicated in the figures/table legends. Results for the compounds (test articles and controls) tested are listed in Table 1, below.
This is a cell-based assay measuring cytotoxicity which results from oxidative stress subsequent to depletion of endogenous glutathione defense mechanisms. The cells were primary Friedreich Ataxia (FA) patient fibroblasts which were incubated for 48 hrs. in BSO, an inhibitor of gamma glutamyl synthetase, an enzyme required for glutathione production. […]

[2] = intact HepG2 cells, rotenone 1 μM, compound 10 μM, increase in respiration rate

Structure (SMILES)	Complex I by-pass activity in Rotenone Oxygraph Assay (in words) (HepG2 cells)	activation at 10 µM (HepG2 cells; [2])	protection against BSO induced cell death (in words) [1]	EC50 [1]	Rotenone Oxygraph Assay % Increase (HepG2 cells; [2])	protection against BSO induced cell death (in words) ([1]; listed as omaveloxolone)
COC1=C(OC)C(=O)C(CCCCCCCCCC(F)(F)F)=C(C)C1=O [Compound C, 2,3-dimethoxy-5-methyl-6-(10,10,10-trifluorodecyl)cyclohexa-2,5-diene-1,4-dione]	effective in rescuing cells	63.9%	best of the test compounds	128 nM		
COC1=C(OC)C(=O)C(CCCCF)=C(C)C1=O [Compound J, 2-(4-fluorobutyl)-5,6-dimethoxy-3-methylcyclohexa-2,5-diene-1,4-dione]	not that effective; also recorded: least active	21.8%	not that effective	> 1000 nM		
CC1(C)CC[C@]2(NC(=O)C(C)(F)F)CC[C@]3(C)[C@H](C(=O)C=C4[C@@]5(C)C=C(C#N)C(=O)C(C)(C)[C@@H]5CC[C@]43C)[C@@H]2C1 [Omaveloxolone, reference compound]	inactive		roughly equivalent in protection as compared with Vatiquinone	149 nM	Inactive	displayed anti-ferroptotic activity

— patent US12037350B2, “Compositions and methods for the prevention and/or treatment of mitochondrial disease, including Friedreich's ataxia” (Stealth BioTherapeutics Inc., priority 2020, dated 2024)
